What was measured:
Jak2 (Jak2-WT) = Jak2 (Jak2-WT) (Mus musculus, UniProt Q62120); experiment: autophosphorylation; type: cell-based
Jak2-V617F = Jak2-V617F (Mus musculus, UniProt Q62120, V617F); experiment: autophosphorylation; type: cell-based
Sequence of Jak2-V617F (Q62120 whole entry V617F): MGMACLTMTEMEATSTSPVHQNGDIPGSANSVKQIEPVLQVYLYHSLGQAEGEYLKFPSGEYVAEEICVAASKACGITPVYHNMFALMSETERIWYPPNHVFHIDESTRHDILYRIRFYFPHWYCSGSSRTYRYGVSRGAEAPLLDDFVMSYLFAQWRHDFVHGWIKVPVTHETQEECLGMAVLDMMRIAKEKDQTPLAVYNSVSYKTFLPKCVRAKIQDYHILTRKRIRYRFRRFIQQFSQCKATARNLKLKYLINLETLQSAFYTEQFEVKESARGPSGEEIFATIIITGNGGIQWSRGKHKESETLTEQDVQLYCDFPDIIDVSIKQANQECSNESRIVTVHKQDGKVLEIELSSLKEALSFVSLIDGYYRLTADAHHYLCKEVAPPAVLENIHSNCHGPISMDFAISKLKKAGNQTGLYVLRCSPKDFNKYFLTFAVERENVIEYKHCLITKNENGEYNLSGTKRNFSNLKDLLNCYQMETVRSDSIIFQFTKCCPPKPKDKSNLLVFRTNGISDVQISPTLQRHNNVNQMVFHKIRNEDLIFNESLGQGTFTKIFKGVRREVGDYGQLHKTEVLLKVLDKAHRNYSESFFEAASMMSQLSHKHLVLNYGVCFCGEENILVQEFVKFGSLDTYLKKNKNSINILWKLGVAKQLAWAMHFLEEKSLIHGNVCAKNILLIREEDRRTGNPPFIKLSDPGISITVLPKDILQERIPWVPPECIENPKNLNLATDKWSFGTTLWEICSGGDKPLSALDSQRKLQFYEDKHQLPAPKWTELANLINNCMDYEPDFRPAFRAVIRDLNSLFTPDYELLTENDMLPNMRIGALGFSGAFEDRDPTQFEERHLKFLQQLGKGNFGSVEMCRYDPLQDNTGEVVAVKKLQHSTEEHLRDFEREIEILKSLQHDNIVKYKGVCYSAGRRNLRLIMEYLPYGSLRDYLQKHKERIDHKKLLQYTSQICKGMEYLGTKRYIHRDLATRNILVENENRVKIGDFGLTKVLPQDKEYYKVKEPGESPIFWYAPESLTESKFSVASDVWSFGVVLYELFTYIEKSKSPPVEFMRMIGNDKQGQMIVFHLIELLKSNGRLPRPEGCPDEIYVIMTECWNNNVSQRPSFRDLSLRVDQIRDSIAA

Sequence of Jak2 (Jak2-WT) (Q62120 whole entry): as the sequence (Q62120 whole entry V617F) above, with F617V counted along it

Question: `CC(CCc1ccccn1)(CCc1ccccn1)C(=O)c1ccccc1` [Z3, 2-methyl-1-phenyl-4-pyridin-2-yl-2-(2-pyridin-2-ylethyl)butan-1-one] was tested. Which IC50 (Jak2 (Jak2-WT)) did it give?
Answer: ~15 µM

Question: And the IC50 (Jak2-V617F)?
Answer: ~28 µM
